The nature of series [1]: Skin compatibility, epicutaneous test (occlusive patch). The series is classed as in vivo, human. The note with it: 5% and 7.5% of the active ingredient. The text has this:
The aim of examining skin compatibility, the so-called epicutaneous test, is to rule out primary skin irritation caused by a test product and/or existing sensitization to the test product. The test substances are applied occlusively to the skin at suitable concentrations. The epicutaneous contact with the test product is limited in terms of location and time and is intensified by occlusion conditions, so that the absorption of the test substances is favored. The skin was examined after 24, 48 and 72 hours. The occlusion conditions are used to allow a potential allergen to more easily penetrate through the stratum corneum to reach the effector cells that could elicit a local immune system response. A positive response occurs when a threshold level of irritation/sensitization is exceeded. A positive reaction to a correctly applied epicutaneous test is considered evidence of primary irritation by the test substance, but not necessarily evidence of sensitization. For the test, 20 mg or 20 μL of the test product is applied undiluted to a ready-made plaster, which is applied and fixed to the clinically healthy skin of the upper back. The test plaster is removed after an exposure time of 24 hours and for the first time assessed dermatologically and allergologically. […] The test reaction was evaluated for the first time 30 minutes after removal of the test plaster under standardized lighting. […]

Series [2] in a line: Antiperspirant effect and side effects over the active ingredient concentration range. The series is classed as in vivo.
A short description of series [3]: In vitro evidence on toxicity, skin corrosion, mutagenicity, carcinogenicity.
The test system of series [4] is Staphylococcus epidermidis DSM 20044, ATCC 14990. Briefly: Minimum inhibitory concentration, dilution series in suspension. Format: cell-based. The note with it: 1-hexylpyridinium chloride in water. From the text:
(§1) Corynebacteria and germs of the genus Staphylococcus epidermidis are mainly found in the underarm area. Therefore, the bacteriostatic effect of a composition comprising 1-hexylpyridinium chloride in water was investigated in vitro on the relevant test microbes. The test microbes used were Staphylococcus epidermidis with the identifier DSM 20044, ATCC 14990, Corynebacterium xerosis with the identification DSM 20743, ATCC 373 and Kocuria rhizophila of the type Micrococcus with the identifier DSM 11926. Using a series of dilutions of the substance to be tested, the minimum inhibitory concentration was determined at which growth of the bacteria in suspension could no longer be detected. […] Thus, an antimicrobial effect on odor-forming microorganisms and thus a deodorizing effect of the active ingredient 1-hexylpyridinium chloride is also shown in vitro.

The test system of series [5] is Corynebacterium xerosis DSM 20743, ATCC 373. The series is described as above. The series is classed as cell-based. The note with it: 1-hexylpyridinium chloride in water.
Source text: as §1

The target of series [6] is BSA (bovine serum albumin) (Bos taurus, UniProt P02769). Kind of series: Protein precipitation in vitro, BSA gelling experiments. The conditions noted are these: composition in water. The text has this: Therefore, the ability of a composition comprising 1-hexylpyridinium chloride in water for protein precipitation was investigated in vitro using BSA (bovine serum albumin) gelling experiments. An aqueous solution of aluminum chloride hexahydrate was used as a positive control.
BSA (bovine serum albumin), sequence (P02769 25-607): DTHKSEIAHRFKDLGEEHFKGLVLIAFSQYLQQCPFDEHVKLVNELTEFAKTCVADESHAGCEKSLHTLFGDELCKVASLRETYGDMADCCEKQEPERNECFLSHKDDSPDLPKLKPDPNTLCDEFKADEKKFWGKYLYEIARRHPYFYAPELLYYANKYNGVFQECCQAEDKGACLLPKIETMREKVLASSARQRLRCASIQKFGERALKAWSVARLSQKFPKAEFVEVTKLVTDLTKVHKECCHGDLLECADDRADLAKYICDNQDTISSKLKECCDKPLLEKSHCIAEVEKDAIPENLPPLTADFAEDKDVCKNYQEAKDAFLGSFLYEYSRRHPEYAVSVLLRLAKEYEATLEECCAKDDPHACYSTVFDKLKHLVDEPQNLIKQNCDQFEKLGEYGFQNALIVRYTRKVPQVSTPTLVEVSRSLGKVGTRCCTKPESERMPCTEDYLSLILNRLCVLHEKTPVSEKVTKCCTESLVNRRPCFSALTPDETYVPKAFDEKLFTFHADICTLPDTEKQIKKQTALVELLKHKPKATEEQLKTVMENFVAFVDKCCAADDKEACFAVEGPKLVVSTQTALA

Turning to `CCCCCC[n+]1ccccc1.[Cl-]` [1-hexylpyridinium chloride], the “in vivo skin compatibility” value in series [1] is on record as “Good in vivo skin compatibility”. Also, the serious side effects result in series [2] (active ingredient concentration 0.5% by weight up to 25% by weight) was “serious side effects were ruled out”. For the same molecule, the antiperspirant effect result in series [2] (active ingredient concentration 0.5% by weight up to 30% by weight) was “good antiperspirant effect”. Besides, in series [3], the mutagenicity or carcinogenicity entry is listed as “no mutagenicity or carcinogenicity”, the skin corrosion result is given as “no skin corrosion” and the toxicity result is reported as “low toxicity”. In addition, the “minimum inhibitory concentration (bacteriostatic effect)” value in series [4] worked out at 0.4%. In addition, the “minimum inhibitory concentration (inhibition of bacterial growth), final preparation concentration” value in series [5] is given as 0.2%. Also, the “gelation of BSA” value in series [6] was “leads to gelation of BSA”.

These data come from patent US20230218496A1, “IONIC LIQUID AS AN ANTIPERSPIRANT” (Novigo GmbH, priority 2020, published 2023).
